Experimental data reported in paper PMC7203124, “Structural Basis for PPARα Activation by 1H-pyrazolo-[3,4-b]pyridine Derivatives” (Scientific Reports, 2020).

Biological target: T1, PPARα (Homo sapiens, UniProt Q07869, I272F)
T1 construct: gene PPARA; hPPARα LBD
T1 sequence (Q07869 199-468 I272F limits assumed): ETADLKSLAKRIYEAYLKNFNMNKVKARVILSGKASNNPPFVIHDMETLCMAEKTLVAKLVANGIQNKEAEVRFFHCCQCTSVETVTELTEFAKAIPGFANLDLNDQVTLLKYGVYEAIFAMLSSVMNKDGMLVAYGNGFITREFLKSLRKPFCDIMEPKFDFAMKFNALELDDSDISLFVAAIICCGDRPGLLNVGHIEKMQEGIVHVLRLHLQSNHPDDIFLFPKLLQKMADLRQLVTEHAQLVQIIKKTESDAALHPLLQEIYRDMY
Assay: transactivation reporter assay at […]
Assay type: cell-based

Structure (SMILES): CC(C)(Oc1ccc(C(=O)c2ccc(Cl)cc2)cc1)C(=O)O [fenofibric acid]
- transactivation reporter assay at 10 μM: while fenofibric acid showed comparable activity between WT and Ile272Phe
